Columns and labels:
Green foxtail [1] = assay: Postemergence herbicidal activity, green foxtail; assay type: in vivo; details: Setaria viridis, post-emergence, 0.3 kg/ha, after 17-21 days, read-out: Postemergence herbicidal activity (% control), Green foxtail
Protocol: (§1) The 3-[4-(phenylmethoxy)phenyl]-1-substituted-6-haloalkyluracil herbicides of this invention were tested for pre- and postemergence herbicidal activity using a variety of crops and weeds. The test plants included soybean (Glycine max var. Williams), field corn (Zea mays var. Agway 425X), wheat (Triticum aestivum var. Wheaton), morningglory (Ipomea lacunosa or Ipomea hederacea), velvetleaf (Abutilon theophrasti), green foxtail (Setaria viridis), Johnsongrass (Sorghum halepense), blackgrass (Aloepecurus myosuroides), common chickweed (Stellaria media), and common cocklebur (Xanthium pensylvanicum).
(§2) For preemergence testing, two disposable fiber flats (8 cm×15 cm×25 cm) for each rate of application of each candidate herbicide were filled to an approximate depth of 6.5 cm with steam-sterilized sandy loam soil. The soil was leveled and impressed with a template to provide five evenly spaced furrows 13 cm long and 0.5 cm deep in each flat. Seeds of soybean, wheat, corn, green foxtail, and johnsongrass were planted in the furrows of the first flat, and seeds of velvetleaf, morningglory, common chickweed, cocklebur, and blackgrass were planted in the furrows of the second flat. The five-row template was employed to firmly press the seeds into place. A topping soil of equal portions of sand and sandy loam soil was placed uniformly on top of each flat to a depth of approximately 0.5 cm. Flats for postemergence testing were prepared in the same manner except that they were planted 8-12 days prior to the preemergence flats and were placed in a greenhouse and watered, thus allowing the seeds to germinate and the foliage to develop.
(§3) In both pre- and postemergence tests, a stock solution of the candidate herbicide was prepared by dissolving 0.27 g of the compound in 20 mL of water/acetone (50/50) containing 0.5% v/v sorbitan monolaurate. For an application rate of 3000 g/ha of herbicide a 10 mL portion of the stock solution was diluted with water/acetone (50/50) to 45 mL.
(§4) The preemergence flats were initially subjected to a light water spray. The four flats were placed two by two along a conveyor belt (i.e., the two preemergence followed by the two postemergence flats). The conveyor belt fed under a spray nozzle mounted about ten inches above the postemergent foliage. The preemergent flats were elevated on the belt so that the soil surface was at the same level below the spray nozzle as the foliage canopy of the postemergent plants. The spray of herbicidal solution was commenced and once stabilized, the flats were passed under the spray at a speed to receive a coverage equivalent of 1000 L/ha. At this coverage the application rates are those shown in the above table for the individual herbicidal solutions. The preemergence flats were watered immediately thereafter, placed in the greenhouse and watered regularly at the soil surface. The postemergence flats were immediately placed in the greenhouse and not watered until 24 hours after treatment with the test solution. Thereafter they were regularly watered at ground level. After 17-21 days the plants were examined and the phytotoxicity data were recorded.
(§5) Herbicidal activity data at selected application rates are given for various compounds of this invention in Table 2 and Table 3. The test compounds are identified by numbers which correspond to those in Table 1.
(§6) Phytotoxicity data were taken as percent control. Percent control was determined by a method similar to the 0 to 100 rating system disclosed in "Research Methods in Weed Science," 2nd ed., B. Truelove, Ed.; Southern Weed Science Society; Auburn University, Auburn, Ala., 1977.

Corn [2] = assay: Preemergence herbicidal activity, corn; assay type: in vivo, Zea mays var. Agway 425X; details: Zea mays, pre-emergence, 0.3 kg/ha, after 17-21 days, read-out: Preemergence herbicidal activity (% control), Corn
Protocol: as §1, §2, §3, §4, §5, §6

Green foxtail [3] = assay: Preemergence herbicidal activity, green foxtail; assay type: in vivo; details: Setaria viridis, pre-emergence, 0.3 kg/ha, after 17-21 days, read-out: Preemergence herbicidal activity (% control), Green foxtail
Protocol: as §1, §2, §3, §4, §5, §6

Chickweed [4] = assay: Postemergence herbicidal activity, chickweed; assay type: in vivo; details: Stellaria media, post-emergence, 0.3 kg/ha, after 17-21 days, read-out: Postemergence herbicidal activity (% control), Chickweed
Protocol: as §1, §2, §3, §4, §5, §6

Blackgrass [5] = assay: Preemergence herbicidal activity, blackgrass; assay type: in vivo, Aloepecurus myosuroides; details: Alopecurus myosuroides, pre-emergence, 0.3 kg/ha, after 17-21 days, read-out: Preemergence herbicidal activity (% control), Blackgrass
Protocol: as §1, §2, §3, §4, §5, §6

Blackgrass [6] = assay: Postemergence herbicidal activity, blackgrass; assay type: in vivo, Aloepecurus myosuroides; details: Alopecurus myosuroides, post-emergence, 0.3 kg/ha, after 17-21 days, read-out: Postemergence herbicidal activity (% control), Blackgrass
Protocol: as §1, §2, §3, §4, §5, §6

Velvetleaf [7] = assay: Postemergence herbicidal activity, velvetleaf; assay type: in vivo; details: Abutilon theophrasti, post-emergence, 0.3 kg/ha, after 17-21 days, read-out: Postemergence herbicidal activity (% control), Velvetleaf
Protocol: as §1, §2, §3, §4, §5, §6

Morningglory [8] = assay: Preemergence herbicidal activity, morningglory; assay type: in vivo, Ipomea lacunosa or Ipomea hederacea; details: Ipomoea, pre-emergence, 0.3 kg/ha, after 17-21 days, read-out: Preemergence herbicidal activity (% control), Morningglory
Protocol: as §1, §2, §3, §4, §5, §6

Soybean [9] = assay: Postemergence herbicidal activity, soybean; assay type: in vivo, Glycine max var. Williams; details: Glycine max, post-emergence, 0.3 kg/ha, after 17-21 days, read-out: Postemergence herbicidal activity (% control), Soybean
Protocol: as §1, §2, §3, §4, §5, §6

Chickweed [10] = assay: Preemergence herbicidal activity, chickweed; assay type: in vivo; details: Stellaria media, pre-emergence, 0.3 kg/ha, after 17-21 days, read-out: Preemergence herbicidal activity (% control), Chickweed
Protocol: as §1, §2, §3, §4, §5, §6

Corn [11] = assay: Postemergence herbicidal activity, corn; assay type: in vivo, Zea mays var. Agway 425X; details: Zea mays, post-emergence, 0.3 kg/ha, after 17-21 days, read-out: Postemergence herbicidal activity (% control), Corn
Protocol: as §1, §2, §3, §4, §5, §6

Morningglory [12] = assay: Postemergence herbicidal activity, morningglory; assay type: in vivo, Ipomea lacunosa or Ipomea hederacea; details: Ipomoea, post-emergence, 0.3 kg/ha, after 17-21 days, read-out: Postemergence herbicidal activity (% control), Morningglory
Protocol: as §1, §2, §3, §4, §5, §6

Wheat [13] = assay: Postemergence herbicidal activity, wheat; assay type: in vivo, Triticum aestivum var. Wheaton; details: Triticum aestivum, post-emergence, 0.3 kg/ha, after 17-21 days, read-out: Postemergence herbicidal activity (% control), Wheat
Protocol: as §1, §2, §3, §4, §5, §6

Cocklebur [14] = assay: Postemergence herbicidal activity, cocklebur; assay type: in vivo, Xanthium pensylvanicum; details: Xanthium strumarium, post-emergence, 0.3 kg/ha, after 17-21 days, read-out: Postemergence herbicidal activity (% control), Cocklebur
Protocol: as §1, §2, §3, §4, §5, §6

Cocklebur [15] = assay: Preemergence herbicidal activity, cocklebur; assay type: in vivo, Xanthium pensylvanicum; details: Xanthium strumarium, pre-emergence, 0.3 kg/ha, after 17-21 days, read-out: Preemergence herbicidal activity (% control), Cocklebur
Protocol: as §1, §2, §3, §4, §5, §6

Johnsongrass [16] = assay: Preemergence herbicidal activity, johnsongrass; assay type: in vivo; details: Sorghum halepense, pre-emergence, 0.3 kg/ha, after 17-21 days, read-out: Preemergence herbicidal activity (% control), Johnsongrass
Protocol: as §1, §2, §3, §4, §5, §6

Velvetleaf [17] = assay: Preemergence herbicidal activity, velvetleaf; assay type: in vivo; details: Abutilon theophrasti, pre-emergence, 0.3 kg/ha, after 17-21 days, read-out: Preemergence herbicidal activity (% control), Velvetleaf
Protocol: as §1, §2, §3, §4, §5, §6

Soybean [18] = assay: Preemergence herbicidal activity, soybean; assay type: in vivo, Glycine max var. Williams; details: Glycine max, pre-emergence, 0.3 kg/ha, after 17-21 days, read-out: Preemergence herbicidal activity (% control), Soybean
Protocol: as §1, §2, §3, §4, §5, §6

Wheat [19] = assay: Preemergence herbicidal activity, wheat; assay type: in vivo, Triticum aestivum var. Wheaton; details: Triticum aestivum, pre-emergence, 0.3 kg/ha, after 17-21 days, read-out: Preemergence herbicidal activity (% control), Wheat
Protocol: as §1, §2, §3, §4, §5, §6

Johnsongrass [20] = assay: Postemergence herbicidal activity, johnsongrass; assay type: in vivo; details: Sorghum halepense, post-emergence, 0.3 kg/ha, after 17-21 days, read-out: Postemergence herbicidal activity (% control), Johnsongrass
Protocol: as §1, §2, §3, §4, §5, §6

SMILES | activity at 300 g/ha (Green foxtail [1]) [%] | activity at 300 g/ha (Corn [2]) [%] | activity at 300 g/ha (Green foxtail [3]) [%] | activity at 300 g/ha (Chickweed [4]) [%] | activity at 300 g/ha (Blackgrass [5]) [%] | activity at 300 g/ha (Blackgrass [6]) [%] | activity at 300 g/ha (Velvetleaf [7]) [%] | activity at 300 g/ha (Morningglory [8]) [%] | activity at 300 g/ha (Soybean [9]) [%] | activity at 300 g/ha (Chickweed [10]) [%] | activity at 300 g/ha (Corn [11]) [%] | activity at 300 g/ha (Morningglory [12]) [%] | activity at 300 g/ha (Wheat [13]) [%] | activity at 300 g/ha (Cocklebur [14]) [%] | activity at 300 g/ha (Cocklebur [15]) [%] | activity at 300 g/ha (Johnsongrass [16]) [%] | activity at 300 g/ha (Velvetleaf [17]) [%] | activity at 300 g/ha (Soybean [18]) [%] | activity at 300 g/ha (Wheat [19]) [%] | activity at 300 g/ha (Johnsongrass [20]) [%]
Cn1c(C(F)(F)F)cc(=O)n(-c2ccc(OCc3ccccc3)cc2)c1=O [Compound 1] | 90 | 60 | 100 | 95 | 10 | 10 | 100 | 100 | 80 | 90 | 30 | 95 | 0 | 80 | 75 | 75 | 100 | 75 | 10 | 60
Cn1c(C(F)(F)F)cc(=O)n(-c2ccc(OCc3ccccc3Cl)cc2)c1=O [Compound 2] | 85 | 15 | 100 | 0 | 0 | 0 | 80 | 60 | 60 | 0 | 45 | 60 | 0 | 30 | 10 | 70 | 100 | 20 | 5 | 10
Cn1c(C(F)(F)F)cc(=O)n(-c2ccc(OCc3cccc(Cl)c3)cc2)c1=O [Compound 3] | 95 | 10 | 95 | 70 | 0 | 0 | 100 | 10 | 45 | 0 | 60 | 90 | 10 | 100 | 0 | 20 | 80 | 10 | 0 | 90
Cn1c(C(F)(F)F)cc(=O)n(-c2ccc(OCc3ccc(Cl)cc3)cc2)c1=O [Compound 4, 3-[4-(4-Chlorophenylmethoxy)phenyl]-1-methyl-6-trifluoromethyluracil] | 80 | 30 | 100 | 100 | 50 | 0 | 95 | 90 | 95 | 100 | 50 | 100 | 0 | 100 | 30 | 95 | 100 | 60 | 10 | 0
Cn1c(C(F)(F)F)cc(=O)n(-c2ccc(OCc3cccc(Cl)c3Cl)cc2)c1=O [Compound 42] | 50 | 0 | 60 | 0 | 0 | 0 | 90 | 70 | 25 | 0 | 30 |  | 0 | 35 | 0 | 30 | 80 | 0 | 0 | 50

Source: patent US5399543A, “3-[4-(phenylmethoxy)phenyl]-1-substituted-6-haloalkyl-uracil herbicides” (FMC Corporation, priority 1993, dated 1995)
